Measured values: the supplement of paper PMC11061612

How the values were obtained:
Experiment in all cases: Bliss excess, mean over the matrix (fraction); higher = more synergy
[1] = system: CCRF-CEM (T-Lymphoblastic Leukemia)
Procedure, shortened: (§1)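 After 24 hours at 37°C and 5% CO2 in 1536-well plates, cells in DMEM/F12 or RPMI plus 10% FBS received two-drug dose matrices for 72 hours. Viability came from CellTiter-Glo 2.0 luminescence and was scaled as inhibition, anchored at 0 by vehicle wells and at 1 by blank wells. Combination Emax is taken as the second-highest inhibition in the matrix, and Bliss excess as the observed combination effect less EA + EB − EA·EB, with EA and EB the single-agent effects.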

[2] = system: CaR-1 (Colorectal Carcinoma)
Procedure, shortened: as §1

[3] = system: Calu-3 (Lung Adenocarcinoma)
Procedure, shortened: as §1

[4] = system: Daoy (Other Solid Carcinomas)
Procedure, shortened: as §1

[5] = system: DoTc2-4510 (Cervical Carcinoma)
Procedure, shortened: as §1

[6] = system: EC-GI-10 (Esophageal Squamous Cell Carcinoma)
Procedure, shortened: as §1

ES4 (Ewing's Sarcoma) = system: ES4 (Ewing's Sarcoma)
Procedure, shortened: as §1

[7] = system: HCC-78 (Lung Adenocarcinoma)
Procedure, shortened: as §1

HOS (Osteosarcoma) = system: HOS (Osteosarcoma)
Procedure, shortened: as §1

KELLY (Neuroblastoma) = system: KELLY (Neuroblastoma)
Procedure, shortened: as §1

[8] = system: KYSE-520 (Esophageal Squamous Cell Carcinoma)
Procedure, shortened: as §1

[9] = system: LB831-BLC (Bladder Carcinoma)
Procedure, shortened: as §1

[10] = system: LS-180 (Colorectal Carcinoma)
Procedure, shortened: as §1

[11] = system: ME-1 (Acute Myeloid Leukemia)
Procedure, shortened: as §1

[12] = system: MFE-296 (Endometrial Carcinoma)
Procedure, shortened: as §1

[13] = system: NCI-H82 (Small Cell Lung Carcinoma)
Procedure, shortened: as §1

[14] = system: OVCA420 (Ovarian Carcinoma)
Procedure, shortened: as §1

[15] = system: RC-K8 (B-Cell Non-Hodgkin's Lymphoma)
Procedure, shortened: as §1

T98G (Glioblastoma) = system: T98G (Glioblastoma)
Procedure, shortened: as §1

[16] = system: TE-9 (Esophageal Squamous Cell Carcinoma)
Procedure, shortened: as §1

Row | SMILES | Bliss excess [1] | Bliss excess [2] | Bliss excess [3] | Bliss excess [4] | Bliss excess [5] | Bliss excess [6] | Bliss excess (ES4 (Ewing's Sarcoma)) | Bliss excess [7] | Bliss excess (HOS (Osteosarcoma)) | Bliss excess (KELLY (Neuroblastoma)) | Bliss excess [8] | Bliss excess [9] | Bliss excess [10] | Bliss excess [11] | Bliss excess [12] | Bliss excess [13] | Bliss excess [14] | Bliss excess [15] | Bliss excess (T98G (Glioblastoma)) | Bliss excess [16]
1 | CN(C)CCCOc1ccc(-c2ccc3ncc4c(c3c2)n(C2CCOCC2)c(=O)n4C)cn1 [AZD0156] + O=C(c1cc(Cc2n[nH]c(=O)c3ccccc23)ccc1F)N1CCN(C(=O)C2CC2)CC1 [Olaparib] (first compound max 3 µM, partner max 3 µM) | 0.158 | -0.0014 | -0.0153 | 0.0714 | -0.043 | 0.0772 | 0.116 | 0.109 | 0.046 | 0.0009 | -0.0172 | -0.0407 | -0.002 | -0.0065 | -0.0153 | 0.0369 | 0.0121 | -0.0046 | -0.0085 | 0.109
2 | C=CCn1c(=O)c2cnc(Nc3ccc(N4CCN(C)CC4)cc3)nc2n1-c1cccc(C(C)(C)O)n1 [AZD1775] + C1CN(CCC1(C(=O)N[C@@H](CCO)C2=CC=C(C=C2)Cl)N)C3=NC=NC4=C3C=CN4 [Capivasertib] (first compound max 3 µM, partner max 3 µM) | 0.0122 | 0.0453 | -0.0761 | -0.0474 | 0.0408 | 0.0203 | 0.0691 | -0.0672 | -0.0141 | -0.0393 | -0.0129 | -0.0434 | -0.0513 | -0.0726 | -0.0091 | 0.003 | -0.0518 | -0.002 | 0.0076 | -0.002
3 | CN(CCO)CC[C@H](CSc1ccccc1)Nc1ccc(S(=O)(=O)NC(=O)c2ccc(N3CCC([C@@H](O)c4ccccc4-c4ccc(Cl)cc4)CC3)cc2)cc1S(=O)(=O)C(F)(F)F [AZD4320] + C1CN(CCC1(C(=O)N[C@@H](CCO)C2=CC=C(C=C2)Cl)N)C3=NC=NC4=C3C=CN4 [Capivasertib] (first compound max 1 µM, 7x7, partner max 3 µM) | 0.0753 | -0.0668 | -0.0149 | 0.0185 | 0.0501 | 0.0003 | -0.0333 | -0.034 | -0.0467 | -0.0433 | -0.0696 | -0.0212 | -0.0389 | -0.0374 | -0.0255 | 0.0177 | -0.0601 | -0.0241 | -0.0371 | 0.0169
4 | CN(CCO)CC[C@H](CSc1ccccc1)Nc1ccc(S(=O)(=O)NC(=O)c2ccc(N3CCC([C@@H](O)c4ccccc4-c4ccc(Cl)cc4)CC3)cc2)cc1S(=O)(=O)C(F)(F)F [AZD4320] + C=CCn1c(=O)c2cnc(Nc3ccc(N4CCN(C)CC4)cc3)nc2n1-c1cccc(C(C)(C)O)n1 [AZD1775] (first compound max 1 µM, partner max 1 µM) | 0.0065 | -0.0375 | 0.014 | -0.0261 | 0.0205 | -0.0597 | 0.12 | -0.0072 | 0.0337 | 0.0505 | -0.0172 | 0.0317 | 0.0046 | 0.0475 | -0.0075 | 0.0113 | -0.0291 | 0.0829 | 0.0317 | 0.0368
5 | COc1nnc2ccc(N3CCC(c4ccc(OCCN5CCN(C)C(=O)[C@H]5C)cc4)CC3)nn12 [AZD5153] + CN(CC[C@H](CSC1=CC=CC=C1)NC2=C(C=C(C=C2)S(=O)(=O)NC(=O)C3=CC=C(C=C3)N4CCC(CC4)[C@H](C5=CC=CC=C5C6=CC=C(C=C6)Cl)O)S(=O)(=O)C(F)(F)F)CCO [AZD4320] (first compound max 1 µM, 7x7, partner max 1 µM) |  |  |  | 0.113 |  | -0.0052 | -0.0136 |  |  |  | 0.023 |  |  |  | 0.0104 |  | -0.0203 | -0.0145 |  | 
6 | Cc1c2c(nn1C)CSCc1cc(n(C)n1)CSc1cc(c3ccccc3c1)OCCCc1c(C(=O)O)n(C)c3c-2c(Cl)ccc13 [AZD5991] + Cc1cc2ncnn2cc1Nc1ncc2c(n1)n(C1CCOCC1)c(=O)n2C [AZD7648] (first compound max 1 µM, 7x7, partner max 10 µM) | 0.0837 | -0.0365 | -0.0115 | -0.0069 |  | -0.0555 | -0.0593 | -0.016 | -0.0036 | -0.0368 | -0.0595 | -0.034 | -0.0213 | 0.013 | -0.0101 | 0.0174 | -0.0531 | 0.0148 | -0.0663 | 0.0162
7 | COc1cccc2c1C(=O)c1c(O)c3c(c(O)c1C2=O)C[C@@](O)(C(=O)CO)C[C@@H]3O[C@H]1C[C@H](N)[C@H](O)[C@H](C)O1 [Doxorubicin] + Cc1cc2ncnn2cc1Nc1ncc2c(n1)n(C1CCOCC1)c(=O)n2C [AZD7648] (first compound max 1 µM, 7x7, partner max 10 µM) | 0.123 | 0.0309 | -0.0006 | 0.0851 | 0.0248 | 0.0887 | 0.0761 | 0.049 | 0.145 | 0.0411 | -0.0086 | 0.0858 | 0.0033 | 0.027 | -0.0119 | 0.0827 | 0.0022 |  | 0.0257 | -0.0393
8 | COc1cccc(OCCCN)c1-c1cc(Nc2cnc(C#N)cn2)n[nH]1 [Prexasertib] + C=CCn1c(=O)c2cnc(Nc3ccc(N4CCN(C)CC4)cc3)nc2n1-c1cccc(C(C)(C)O)n1 [AZD1775] (first compound max 1 µM, partner max 1 µM) | 0.0186 | 0.086 | 0.0255 | 0.0573 | 0.048 | 0.077 | 0.0978 | 0.0774 | 0.0888 | 0.0252 | 0.0142 | 0.168 | 0.184 | 0.0408 | 0.116 | 0.0778 | 0.0044 |  | -0.0232 | 0.2
9 | COc1cccc(OCCCN)c1-c1cc(Nc2cnc(C#N)cn2)n[nH]1 [Prexasertib] + CN(C)CCCOc1ccc(-c2ccc3ncc4c(c3c2)n(C2CCOCC2)c(=O)n4C)cn1 [AZD0156] (first compound max 1 µM, 7x7, partner max 1 µM) | -0.058 | -0.0442 | -0.0668 | 0.0208 | -0.0208 | -0.0056 | 0.0147 | -0.0463 | -0.0434 | 0.0113 | -0.0211 | 0.0252 | -0.0605 | -0.0167 | -0.0163 | 0.0117 | -0.0279 |  | 0.0132 | -0.0307
10 | COc1cccc(OCCCN)c1-c1cc(Nc2cnc(C#N)cn2)n[nH]1 [Prexasertib] + C[C@@H]1COCCN1C2=NC(=NC(=C2)C3(CC3)[S@](=N)(=O)C)C4=C5C=CNC5=NC=C4 [AZD6738] (first compound max 1 µM, 7x7, partner max 10 µM) | -0.0013 | 0.0097 | -0.0108 | 0.0032 | -0.0218 | 0.0193 | -0.0489 | 0.0318 | 0.0261 | 0.0187 | -0.0696 | 0.019 | 0.0194 | 0.0637 | -0.0456 | -0.0186 | -0.0214 |  | 0.0453 | -0.0233
11 | COc1cccc(OCCCN)c1-c1cc(Nc2cnc(C#N)cn2)n[nH]1 [Prexasertib] + Cc1cc2ncnn2cc1Nc1ncc2c(n1)n(C1CCOCC1)c(=O)n2C [AZD7648] (first compound max 1 µM, 7x7, partner max 10 µM) | -0.0076 | 0.0141 | 0.0049 | -0.009 | 0.0159 | -0.0144 | -0.0121 | -0.0841 | -0.0393 | -0.0027 | -0.0177 | -0.0865 | -0.0329 | -0.0048 | -0.0093 | -0.0355 | -0.0002 |  | -0.0566 | -0.0322
12 | COc1cccc(OCCCN)c1-c1cc(Nc2cnc(C#N)cn2)n[nH]1 [Prexasertib] + O=C(c1cc(Cc2n[nH]c(=O)c3ccccc23)ccc1F)N1CCN(C(=O)C2CC2)CC1 [Olaparib] (first compound max 1 µM, 7x7, partner max 10 µM) | 0.0024 | -0.0635 | -0.0558 | 0.0261 | -0.0041 | -0.0253 | -0.0699 | -0.0733 | -0.0168 | -0.0742 | -0.111 | -0.0175 | -0.0348 | -0.0619 | -0.0516 | -0.0735 | -0.0374 |  | -0.134 | -0.0425
13 | COc1cc2c(cc1OCCCCCOc1cc3c(cc1OC)C(=O)N1C=C(C)C[C@H]1C=N3)N=C[C@@H]1CC(C)=CN1C2=O [SG3199] + O=C(c1cc(Cc2n[nH]c(=O)c3ccccc23)ccc1F)N1CCN(C(=O)C2CC2)CC1 [Olaparib] (first compound max 0.001 µM, 7x7, partner max 10 µM) | -0.0045 | -0.0429 | -0.0266 | -0.0171 | -0.0123 | -0.011 | -0.0097 | -0.0294 | -0.0232 | 0.0142 | -0.0137 | -0.0486 | -0.0525 | -0.013 | -0.0639 | -0.0075 | -0.0268 |  | -0.0486 | -0.0269
14 | CCc1c2c(nc3ccc(O)cc13)-c1cc3c(c(=O)n1C2)COC(=O)[C@]3(O)CC [SN-38] + CN(C)CCCOc1ccc(-c2ccc3ncc4c(c3c2)n(C2CCOCC2)c(=O)n4C)cn1 [AZD0156] (first compound max 0.3 µM, 7x7, partner max 1 µM) | 0.0508 | 0.0109 | 0.0092 | 0.0666 | 0.0091 | 0.0134 | 0.0523 | -0.0066 | 0.0114 | 0.0155 | -0.0071 | 0.0223 | 0.0439 | -0.008 | -0.0007 | 0.0287 | -0.008 |  | -0.03 | 0.0065
15 | C[C@@H](c1ccc2nccn2c1)n1nnc2ncc(-c3cnn(C)c3)nc21 [Savolitinib] + CN(CC[C@H](CSC1=CC=CC=C1)NC2=C(C=C(C=C2)S(=O)(=O)NC(=O)C3=CC=C(C=C3)N4CCC(CC4)[C@H](C5=CC=CC=C5C6=CC=C(C=C6)Cl)O)S(=O)(=O)C(F)(F)F)CCO [AZD4320] (first compound max 1 µM, 7x7, partner max 1 µM) |  |  |  | -0.0547 |  | 0.0005 | -0.0622 |  |  |  | -0.0298 |  |  |  | -0.0181 |  | -0.0691 | -0.0478 |  | 
